Measured values published in patent US8796256B2 (Janssen Pharmaceutica NV, priority 2010, dated 2014).
Read-outs that look alike come from different tables or passages of the source.

Tests used:
Zucker fa/fa male rats = test: Zucker fa/fa Rat Model Assay; assay type: in vivo; conditions: po, 120 h, 10 mg/kg orally once a day for 4 days
Description: Zucker fa/fa is a monogenic model of frank diabetes due to a mutation on the fa gene truncating the leptin receptor and preventing its interaction with its peptide hormone. This mutation results in a hyperphagic phenotype and the rodent develops obesity, hyperlipidemia, fasting hyperglycemia and insulin resistance. Zucker fa/fa male rats were received at four weeks of age and allowed to acclimate for one week. At five weeks of age the animals were single housed in cages in a temperature-controlled room with 12-hour light/dark cycle. The rats were allowed ad libitum access to water and food and throughout the study were maintained on a Purina 5008 diet. Animals were sorted based primarily on fed insulin levels and circulating triglycerides. Animals were dosed orally once a day (10 mg/kg) in the morning for 4 days. The vehicle used was either 20% HPβCD (Hydroxypropyl Beta Cyclodextrin) or 15% Vitamin E/30% PEG-400 (Polyethylene Glycol 400). Fed insulin and triglycerides were measured using blood collected from the tail vein at day 5. Serum plasma samples were prepared by centrifugation in EDTA (Ethylenediaminetetraacetic acid) containing tubes, transferred into 96 well plates and stored at −80° C.

[1] = molecular target: T1, ERR1 (also known as ERR-α or ERR-1) (Homo sapiens, UniProt P11474); test: TR-FRET assay (disruption of co-activator peptide binding to ERR1 LBD); assay type: biochemical; conditions: 6 nM 6His-ERR1LBD, 6 nM GST-SRC-2 peptide; average of 3 independent experiments
T1 sequence (P11474 193-421 limits assumed): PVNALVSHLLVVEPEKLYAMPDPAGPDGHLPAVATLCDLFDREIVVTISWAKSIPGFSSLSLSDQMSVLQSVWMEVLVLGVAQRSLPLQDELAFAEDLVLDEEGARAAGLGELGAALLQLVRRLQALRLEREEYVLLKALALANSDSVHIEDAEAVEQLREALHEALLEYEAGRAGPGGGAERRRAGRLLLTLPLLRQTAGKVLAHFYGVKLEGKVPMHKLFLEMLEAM
Outline: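 Homogeneous TR-FRET measuring displacement of GST-hSRC2 co-activator peptide (6 nM) from His-tagged ERR1 LBD (6 nM), detected with α-GST Eu cryptate (30 nM) and α-His-XL665 (7.5 nM). Buffer 25 mM Tris pH 8, 2.5 mM Hepes, 20 mM KCl, 1 mM DTT, 0.05 mg/mL delipidated BSA; equilibration 4-18 h at 25° C. Hyperbolic dose-response fit, mean of 3 experiments.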

[2] = blood from tail vein at day 5, read-out: % Change Fed Insulin Levels
[3] = blood from tail vein at day 5, read-out: % Change Fed Triglyceride Levels

Compound	change in vivo at 10 mg/kg (Zucker fa/fa male rats; [2]) [%]	change in vivo at 10 mg/kg (Zucker fa/fa male rats; [3]) [%]	EC50 [1] [nM]
CN1C2CCC1CC(N1C(=O)S/C(=C\c3ccc4c(cnn4Cc4ccc(Cl)cc4C(F)(F)F)c3)C1=O)C2 (stereo not drawn) [Compound 128, (5Z)-5-({1-[4-Chloro-2-(trifluoromethyl)benzyl]-1H-indazol-5-yl}methylidene)-3-(8-methyl-8-azabicyclo[3.2.1]oct-3-yl)-1,3-thiazolidine-2,4-dione]	-36	28	19
CN1CC[C@H](N2C(=O)S/C(=C\c3ccc4c(cnn4Cc4ccc(Cl)cc4C(F)(F)F)c3)C2=O)C1 [Compound 143, (5Z)-5-({1-[4-Chloro-2-(trifluoromethyl)benzyl]-1H-indazol-5-yl}methylidene)-3-[(3S)-1-methylpyrrolidin-3-yl]-1,3-thiazolidine-2,4-dione]	-49	-29	25
O=C(O)CN1CCC(N2C(=O)S/C(=C\c3ccc4c(cnn4Cc4ccc(Cl)cc4C(F)(F)F)c3)C2=O)CC1 [Compound 146, {4-[(5Z)-5-({1-[4-Chloro-2-(trifluoromethyl)benzyl]-1H-indazol-5-yl}methylidene)-2,4-dioxo-1,3-thiazolidin-3-yl]piperidin-1-yl}acetic acid]	-26	-14	16
O=C1S/C(=C\c2ccc3c(cnn3Cc3ccc(Cl)cc3C(F)(F)F)c2)C(=O)N1C1CCN(CCO)CC1 [Compound 148, (5Z)-5-({1-[4-Chloro-2-(trifluoromethyl)benzyl]-1H-indazol-5-yl}methylidene)-3-[1-(2-hydroxyethyl)piperidin-4-yl]-1,3-thiazolidine-2,4-dione]	-77	-40	15
CS(=O)(=O)CCN1CCC(N2C(=O)S/C(=C\c3ccc4c(cnn4Cc4ccc(Cl)cc4C(F)(F)F)c3)C2=O)CC1 [Compound 149, (5Z)-5-({1-[4-Chloro-2-(trifluoromethyl)benzyl]-1H-indazol-5-yl}methylidene)-3-{1-[2-(methylsulfonyl)ethyl]piperidin-4-yl}-1,3-thiazolidine-2,4-dione]	-35	10	26
C[C@H](N)CN1C(=O)S/C(=C\c2ccc3c(cnn3Cc3ccc(Cl)cc3C(F)(F)F)c2)C1=O [Compound 155, 3-[(2S)-2-Aminopropyl]-(5Z)-5-({1-[4-chloro-2-(trifluoromethyl)benzyl]-1H-indazol-5-yl}methylidene)-1,3-thiazolidine-2,4-dione]	-60	-55	24
CC(=O)NS(=O)(=O)CN1C(=O)S/C(=C\c2ccc3c(cnn3Cc3ccc(Cl)cc3C(F)(F)F)c2)C1=O [Compound 166, N-({[(5Z)-5-({1-[4-Chloro-2-(trifluoromethyl)benzyl]-1H-indazol-5-yl}methylidene)-2,4-dioxo-1,3-thiazolidin-3-yl]methyl}sulfonyl)acetamide]	-58	-37	8
N[C@@H](CO)CN1C(=O)S/C(=C\c2ccc3c(cnn3Cc3ccc(Cl)cc3C(F)(F)F)c2)C1=O [Compound 167, (5Z)-3-[(2R)-2-Amino-3-hydroxypropyl]-5-({1-[4-chloro-2-(trifluoromethyl)benzyl]-1H-indazol-5-yl}methylidene)-1,3-thiazolidine-2,4-dione]	-33	-45	23
O=C1S/C(=C\c2ccc3c(cnn3Cc3ccc(Cl)cc3C(F)(F)F)c2)C(=O)N1C[C@H]1COCCN1 [Compound 170, (5Z)-5-({1-[4-Chloro-2-(trifluoromethyl)benzyl]-1H-indazol-5-yl}methylidene)-3-[(3S)-morpholin-3-ylmethyl]-1,3-thiazolidine-2,4-dione]	-52	-61	15
O=C1S/C(=C\c2ccc3c(cnn3Cc3ccc(Cl)cc3C(F)(F)F)c2)C(=O)N1C[C@H]1CN2CCC[C@H]2CO1 [Compound 202, (5Z)-5-({1-[4-Chloro-2-(trifluoromethyl)benzyl]-1H-indazol-5-yl}methylidene)-3-[(3R,8aS)-hexahydro-1H-pyrrolo[2,1-c] [1,4]oxazin-3-ylmethyl]-1,3-thiazolidine-2,4-dione]	-3	-26	35
O=C(O)CN1C(=O)S/C(=C\c2ccc3c(c2)nnn3Cc2ccc(Cl)cc2C(F)(F)F)C1=O [Compound 260, [(5Z)-5-({1-[4-Chloro-2-(trifluoromethyl)benzyl]-1H-benzotriazol-5-yl}methylidene)-2,4-dioxo-1,3-thiazolidin-3-yl]acetic acid]	-50	-23	41
O=C(O)CN1C(=O)S/C(=C\c2ccc3c(c2)c(Cl)nn3Cc2ccc(Cl)cc2C(F)(F)F)C1=O [Compound 287, [(5Z)-5-({1-[4-Chloro-2-(trifluoromethyl)benzyl]-3-chloro-1H-indazol-5-yl}methylidene)-2,4-dioxo-1,3-thiazolidin-3-yl]acetic acid]	-53	-36	22
O=C1S/C(=C\c2ccc3c(cnn3Cc3ccc(Cl)cc3C(F)(F)F)c2)C(=O)N1O [Compound 288, (5Z)-5-({1-[4-Chloro-2-(trifluoromethyl)benzyl]-1H-indazol-5-yl}methylidene)-3-hydroxy-1,3-thiazolidine-2,4-dione]	-35	-29	16
CS(=O)(=O)NN1C(=O)S/C(=C\c2ccc3c(cnn3Cc3ccc(Cl)cc3C(F)(F)F)c2)C1=O [Compound 361, N-[(5Z)-5-({1-[4-Chloro-2-(trifluoromethyl)benzyl]-1H-indazol-5-yl}methylidene)-2,4-dioxo-1,3-thiazolidin-3-yl]methanesulfonamide]	-58	-43	13
CN1CC[C@@H](N2C(=O)S/C(=C\c3ccc4c(cnn4Cc4ccc(Cl)cc4C(F)(F)F)c3)C2=O)[C@H](F)C1 [Compound 383, (5Z)-5-({1-[4-Chloro-2-(trifluoromethyl)benzyl]-1H-indazol-5-yl}methylidene)-3-[(3R,4R)-3-fluoro-1-methylpiperidin-4-yl]-1,3-thiazolidine-2,4-dione]	-67	-68	23
CN1CC[C@H](N2C(=O)S/C(=C\c3ccc4c(cnn4Cc4ccc(Cl)cc4C(F)(F)F)c3)C2=O)[C@@H](F)C1 [Compound 384, (5Z)-5-({1-[4-Chloro-2-(trifluoromethyl)benzyl]-1H-indazol-5-yl}methylidene)-3-[(3S,4S)-3-fluoro-1-methylpiperidin-4-yl]-1,3-thiazolidine-2,4-dione]	-52	-51	22
